Test results taken from ChEMBL document CHEMBL4007467, “Effects of 6-paradol, an unsaturated ketone from gingers, on cytochrome P450-mediated drug metabolism” (Bioorg Med Chem Lett, 2017).

Legend:
Assay type in all cases: ADME
CYP2C8 [1] = target: T1, CYP2C8 (Homo sapiens, UniProt P10632); assay: Inhibition of CYP2C8 in human liver microsomes assessed as enzyme-mediated metabolite formation at 0.3 uM using paclitaxel as substrate incubated for 5 mins followed by NADPH addition measured after 30 mins by LC-MS/MS analysis relative to control; parameters: scale not given: the % may be the effect or the level left; details: probe paclitaxel, read-out: Activity
T1 sequence (P10632 whole entry): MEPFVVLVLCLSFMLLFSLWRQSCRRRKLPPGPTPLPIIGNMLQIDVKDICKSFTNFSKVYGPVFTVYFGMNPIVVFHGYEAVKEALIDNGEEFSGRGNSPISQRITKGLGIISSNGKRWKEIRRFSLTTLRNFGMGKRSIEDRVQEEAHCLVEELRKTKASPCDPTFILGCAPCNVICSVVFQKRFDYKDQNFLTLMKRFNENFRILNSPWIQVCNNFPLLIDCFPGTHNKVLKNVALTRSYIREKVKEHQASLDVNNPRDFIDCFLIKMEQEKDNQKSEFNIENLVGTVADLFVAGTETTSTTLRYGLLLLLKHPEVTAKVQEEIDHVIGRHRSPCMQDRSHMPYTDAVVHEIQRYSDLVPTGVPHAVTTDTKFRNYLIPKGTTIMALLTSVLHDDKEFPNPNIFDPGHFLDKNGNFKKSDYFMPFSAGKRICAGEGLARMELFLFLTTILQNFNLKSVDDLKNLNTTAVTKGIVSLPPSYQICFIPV

Cytochrome P450 2C19 = Cytochrome P450 2C19 (Homo sapiens, UniProt P33261); assay: Inhibition of CYP2C19 in human liver microsomes assessed as enzyme-mediated metabolite formation using (S)-mephenytoin as substrate incubated for 5 mins followed by NADPH addition measured after 30 mins by LC-MS/MS analysis
CYP2D6 [2] = target: T2, CYP2D6 (Homo sapiens, UniProt P10635); assay: Inhibition of CYP2D6 in human liver microsomes assessed as enzyme-mediated metabolite formation at 1 uM using dextromethorphan as substrate incubated for 5 mins followed by NADPH addition measured after 30 mins by LC-MS/MS analysis relative to control; parameters: scale not given: the % may be the effect or the level left; details: probe dextromethorphan, read-out: Activity
CYP3A4 = CYP3A4 (Homo sapiens, UniProt P08684); assay: Inhibition of CYP3A4 in human liver microsomes assessed as enzyme-mediated metabolite formation at 30 uM using testosterone as substrate incubated for 5 mins followed by NADPH addition measured after 30 mins by LC-MS/MS analysis relative to control; parameters: scale not given: the % may be the effect or the level left; details: probe testosterone, read-out: Activity
CYP1A2 [3] = target: T3, CYP1A2 (Homo sapiens, UniProt P05177); assay: Inhibition of CYP1A2 in human liver microsomes assessed as enzyme-mediated metabolite formation at 1 uM using phenacetin as substrate preincubated for 20 mins followed by substrate addition measured after 30 mins in presence of NADPH by LC-MS/MS analysis relative to control; parameters: scale not given: the % may be the effect or the level left; details: probe phenacetin, read-out: Activity
T3 sequence (P05177 whole entry): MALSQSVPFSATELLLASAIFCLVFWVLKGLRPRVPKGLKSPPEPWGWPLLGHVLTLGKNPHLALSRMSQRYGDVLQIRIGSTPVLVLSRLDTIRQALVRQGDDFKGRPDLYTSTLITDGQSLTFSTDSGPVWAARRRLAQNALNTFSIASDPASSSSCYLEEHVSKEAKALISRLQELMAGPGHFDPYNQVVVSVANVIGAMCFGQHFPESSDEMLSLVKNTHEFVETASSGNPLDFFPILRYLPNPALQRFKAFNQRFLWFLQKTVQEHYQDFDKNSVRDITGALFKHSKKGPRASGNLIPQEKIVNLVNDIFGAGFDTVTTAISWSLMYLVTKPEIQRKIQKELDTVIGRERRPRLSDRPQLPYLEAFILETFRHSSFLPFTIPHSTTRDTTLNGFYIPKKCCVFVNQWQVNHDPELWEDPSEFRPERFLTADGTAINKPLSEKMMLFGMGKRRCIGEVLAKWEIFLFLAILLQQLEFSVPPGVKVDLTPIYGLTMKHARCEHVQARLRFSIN

CYP1A2 [4] = target: T3, CYP1A2; assay: Inhibition of CYP1A2 in human liver microsomes assessed as enzyme-mediated metabolite formation at 3 uM using phenacetin as substrate preincubated for 20 mins followed by substrate addition measured after 30 mins in presence of NADPH by LC-MS/MS analysis relative to control; parameters: scale not given: the % may be the effect or the level left; details: probe phenacetin, read-out: Activity
CYP2B6 = target: T4, CYP2B6 (Homo sapiens, UniProt P20813); assay: Inhibition of CYP2B6 in human liver microsomes assessed as enzyme-mediated metabolite formation at 10 uM using bupropion as substrate preincubated for 20 mins followed by substrate addition measured after 30 mins in presence of NADPH by LC-MS/MS analysis relative to control; parameters: scale not given: the % may be the effect or the level left; details: probe bupropion, read-out: Activity
T4 sequence (P20813 whole entry): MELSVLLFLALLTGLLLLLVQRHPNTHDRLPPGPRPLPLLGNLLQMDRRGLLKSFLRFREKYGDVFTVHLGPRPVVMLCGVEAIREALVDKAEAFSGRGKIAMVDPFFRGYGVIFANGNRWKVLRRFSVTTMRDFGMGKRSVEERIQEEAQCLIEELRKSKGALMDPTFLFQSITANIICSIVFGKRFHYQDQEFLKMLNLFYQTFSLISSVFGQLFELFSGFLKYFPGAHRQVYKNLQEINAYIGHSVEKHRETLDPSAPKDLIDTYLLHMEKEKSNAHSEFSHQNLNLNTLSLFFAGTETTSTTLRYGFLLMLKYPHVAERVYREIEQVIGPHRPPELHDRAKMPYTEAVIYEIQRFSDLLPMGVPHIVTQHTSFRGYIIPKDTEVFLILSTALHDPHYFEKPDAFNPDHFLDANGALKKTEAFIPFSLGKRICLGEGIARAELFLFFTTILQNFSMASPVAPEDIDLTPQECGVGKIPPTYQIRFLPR

CYP2C8 [5] = target: T1, CYP2C8; assay: Inhibition of CYP2C8 in human liver microsomes assessed as enzyme-mediated metabolite formation at 1 uM using paclitaxel as substrate preincubated for 20 mins followed by substrate addition measured after 30 mins in presence of NADPH by LC-MS/MS analysis relative to control; parameters: scale not given: the % may be the effect or the level left; details: probe paclitaxel, read-out: Activity
Cytochrome P450 2C9 = Cytochrome P450 2C9 (Homo sapiens, UniProt P11712); assay: Inhibition of CYP2C9 in human liver microsomes using diclofenac as substrate preincubated for 20 mins followed by substrate addition measured after 30 mins in presence of NADPH by LC-MS/MS analysis
CYP2D6 [6] = target: T2, CYP2D6; assay: Inhibition of CYP2D6 in human liver microsomes assessed as enzyme-mediated metabolite formation at 0.1 uM using dextromethorphan as substrate preincubated for 20 mins followed by substrate addition measured after 30 mins in presence of NADPH by LC-MS/MS analysis relative to control; parameters: scale not given: the % may be the effect or the level left; details: probe dextromethorphan, read-out: Activity
Cytochrome P450 2B6 = target: T5, Cytochrome P450 2B6 (Homo sapiens, UniProt P20813); assay: Inhibition of human CYP2B6 using bupropion as substrate incubated for 5 mins followed by NADPH addition measured after 30 mins by LC-MS/MS analysis
T5 sequence (P20813 whole entry): T4 sequence (P20813 whole entry)

Cytochrome P450 2C8 = target: T6, Cytochrome P450 2C8 (Homo sapiens, UniProt P10632); assay: Inhibition of human CYP2C8 using paclitaxel as substrate incubated for 5 mins followed by NADPH addition measured after 30 mins by LC-MS/MS analysis
T6 sequence (P10632 whole entry): T1 sequence (P10632 whole entry)

T2 sequence (P10635 whole entry): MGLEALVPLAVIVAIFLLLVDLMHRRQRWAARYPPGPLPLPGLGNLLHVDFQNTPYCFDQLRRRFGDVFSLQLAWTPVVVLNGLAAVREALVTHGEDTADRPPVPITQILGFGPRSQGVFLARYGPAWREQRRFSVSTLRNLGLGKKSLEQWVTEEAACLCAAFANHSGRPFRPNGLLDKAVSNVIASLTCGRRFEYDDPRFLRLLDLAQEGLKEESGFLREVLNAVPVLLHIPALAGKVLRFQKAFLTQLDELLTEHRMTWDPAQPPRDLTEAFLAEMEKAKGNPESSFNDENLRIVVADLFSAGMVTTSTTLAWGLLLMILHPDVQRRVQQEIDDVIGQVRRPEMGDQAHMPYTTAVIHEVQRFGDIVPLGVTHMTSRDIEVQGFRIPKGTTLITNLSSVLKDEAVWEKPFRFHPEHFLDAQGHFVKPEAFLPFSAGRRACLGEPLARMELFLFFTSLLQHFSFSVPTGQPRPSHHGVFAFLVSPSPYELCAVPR
CYP3A4, sequence (P08684 whole entry): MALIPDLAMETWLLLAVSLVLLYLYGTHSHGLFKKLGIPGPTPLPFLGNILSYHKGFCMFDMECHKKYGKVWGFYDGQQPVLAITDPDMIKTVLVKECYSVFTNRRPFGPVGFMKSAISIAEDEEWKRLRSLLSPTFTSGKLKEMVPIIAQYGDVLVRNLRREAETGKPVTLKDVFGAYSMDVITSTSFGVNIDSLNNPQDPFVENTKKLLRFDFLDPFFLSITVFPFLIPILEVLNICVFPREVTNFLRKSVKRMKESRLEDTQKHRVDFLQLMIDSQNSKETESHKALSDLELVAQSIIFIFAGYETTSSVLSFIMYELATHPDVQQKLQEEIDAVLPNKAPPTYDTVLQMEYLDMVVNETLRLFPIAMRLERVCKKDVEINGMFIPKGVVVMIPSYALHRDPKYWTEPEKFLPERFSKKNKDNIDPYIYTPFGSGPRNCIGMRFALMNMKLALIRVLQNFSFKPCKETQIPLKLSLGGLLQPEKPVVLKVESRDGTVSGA
Cytochrome P450 2C19, sequence (P33261 whole entry): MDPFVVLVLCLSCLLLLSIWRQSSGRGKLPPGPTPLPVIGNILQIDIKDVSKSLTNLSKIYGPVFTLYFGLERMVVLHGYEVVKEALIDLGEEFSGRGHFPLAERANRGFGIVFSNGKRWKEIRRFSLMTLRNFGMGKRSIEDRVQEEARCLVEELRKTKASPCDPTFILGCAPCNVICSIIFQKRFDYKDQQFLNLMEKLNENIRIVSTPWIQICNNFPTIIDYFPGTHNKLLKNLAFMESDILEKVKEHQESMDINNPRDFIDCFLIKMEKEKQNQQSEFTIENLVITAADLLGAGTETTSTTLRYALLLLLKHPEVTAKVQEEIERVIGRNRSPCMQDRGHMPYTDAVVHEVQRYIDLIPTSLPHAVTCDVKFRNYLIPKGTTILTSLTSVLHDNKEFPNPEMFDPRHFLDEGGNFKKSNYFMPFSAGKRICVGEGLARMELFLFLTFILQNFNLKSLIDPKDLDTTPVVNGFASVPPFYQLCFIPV
Cytochrome P450 2C9, sequence (P11712 whole entry): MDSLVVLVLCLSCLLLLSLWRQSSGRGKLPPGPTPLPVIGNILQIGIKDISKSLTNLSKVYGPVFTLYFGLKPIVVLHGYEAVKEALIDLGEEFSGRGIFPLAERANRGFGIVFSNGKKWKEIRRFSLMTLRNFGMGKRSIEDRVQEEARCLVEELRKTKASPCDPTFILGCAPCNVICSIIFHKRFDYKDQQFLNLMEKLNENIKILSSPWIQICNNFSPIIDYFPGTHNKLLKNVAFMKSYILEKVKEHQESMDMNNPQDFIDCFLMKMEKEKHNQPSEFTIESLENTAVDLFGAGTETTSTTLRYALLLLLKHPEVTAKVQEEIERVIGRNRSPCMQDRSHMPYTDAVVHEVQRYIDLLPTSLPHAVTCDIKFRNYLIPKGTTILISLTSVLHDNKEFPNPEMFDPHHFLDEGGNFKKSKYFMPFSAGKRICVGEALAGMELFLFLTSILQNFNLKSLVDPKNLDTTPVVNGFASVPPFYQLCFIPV

activity at 0.5 h, 0.3 µM (CYP2C8 [1]): 82%
IC50 (Cytochrome P450 2C19): 17.6 µM
activity at 0.5 h, 1 µM (CYP2D6 [2]): 75.9%
activity at 0.5 h, 30 µM (CYP3A4): 48.6%
activity at 0.5 h, 1 µM (CYP1A2 [3]): 82.1%
activity at 0.5 h, 3 µM (CYP1A2 [4]): 76.5%
activity at 0.5 h, 10 µM (CYP2B6): 54.3%
activity at 0.5 h, 1 µM (CYP2C8 [5]): 61.5%
IC50 (Cytochrome P450 2C9): 9.9 µM
activity at 0.5 h, 0.1 µM (CYP2D6 [6]): 89.5%
IC50 (Cytochrome P450 2B6): 6.2 µM
inhibition (INH) (Cytochrome P450 2B6; human, 0.5 h): Dose-dependent effect
IC50 (Cytochrome P450 2C8): 3.8 µM
inhibition (INH) (Cytochrome P450 2C8; human, 0.5 h): Dose-dependent effect
Structure (SMILES): CCCCCCCC(=O)CCc1ccc(O)c(OC)c1
